Common to all, as to experiment: NCI-60 cell line screen, 48 h
Experiment [1] has as its system 786-0 renal.
Experiment [2] relates to A549 NSCLC.
Experiment [3] deals with CAKI-1 renal.
Experiment [4] concerns K-562 leukemia.
Experiment [5] deals with MDA-MB-435.
The subject of experiment [6] is NCI-H226 lung.
Experiment [7] relates to OVCAR-8 ovarian.
The test system of experiment [8] is PC-3 prostate.
For experiment [9], the system named is SF-295 CNS.
Experiment [10] deals with SN12C renal.

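Exposure lasted 48 hours, with cells grown in 96-well plates and compounds tested at five concentrations. GI50 is the concentration that inhibits growth by half. TGI: concentration producing complete growth inhibition.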 Some results are limits rather than exact numbers.

For `COc1ccc(-c2nc(-c3ccccc3)c(-c3ccccc3)[nH]2)cc1OC1CCCC1`, the GI50 in experiment [1] was above 100 µM; in experiment [2] it was above 100 µM; in experiment [3] it was 88 µM; in experiment [4] it was 79.5 µM; in [5], above 100 µM; in [6], above 100 µM. In addition, the GI50 in experiment [7] was above 100 µM; in experiment [8] it was above 100 µM; in [9], 49.8 µM; in experiment [10] it was above 100 µM. Moreover, the TGI in experiment [1], in [2], in experiment [3], in experiment [4], in experiment [5] and in experiment [6] was above 100 µM each time. The TGI in experiment [7], in experiment [8], in experiment [9] and in experiment [10] was above 100 µM throughout.

Consider `c1cc2n(n1)CCN2`, for which the TGI was above 7100 µM in [1]; 8580 µM in [2]; 4680 µM in experiment [3]; above 10000 µM in experiment [4]; above 10000 µM in [5]; above 9350 µM in experiment [6]. Further, the TGI in experiment [7] is above 9400 µM; in [8], above 10000 µM; in experiment [9], 4350 µM; in [10] it was 7050 µM.

With `C=CCC1(O)c2ccccc2C(=O)c2c(NCCN(CC(=O)OCC)CC(=O)OCC)cccc21` (configuration not stated), the GI50 is above 100 µM in experiment [1]; above 100 µM in experiment [2]; above 100 µM in [3]; 30.9 µM in experiment [4]; above 100 µM in [5]; above 100 µM in [6]. For the same compound, the GI50 in [7] is above 100 µM; in experiment [8], 97.1 µM; in experiment [9], above 100 µM; in experiment [10], 57 µM. Moreover, the TGI in experiment [1], in [2], in experiment [3], in experiment [4], in [5] and in experiment [6] was above 100 µM each time. In addition, the TGI in experiment [7], in experiment [8], in [9] and in experiment [10] was above 100 µM each time.

For the compound `O=S(=O)(Nc1ccc(Br)c(Cl)c1)c1ccc(-c2cnc(C3CC3)o2)cc1`, the GI50 in experiment [1] was 0.574 µM; in experiment [2], 0.789 µM; in experiment [3] it was 0.431 µM; in [4], 0.323 µM; in [5] it was 0.177 µM; in experiment [6], 1.23 µM. Besides, the GI50 in [7] is 1.5 µM; in experiment [8], 0.493 µM; in experiment [9], 0.343 µM; in experiment [10], 1.27 µM. For the same compound, the TGI in [1] was 17.9 µM; in [2], 18.3 µM; in [3], 16.4 µM; in experiment [4], above 100 µM; in [5] it was 2.45 µM; in [6], 18.8 µM. Further, the TGI in experiment [7] was found to be 21.4 µM; in experiment [8] it was 14.8 µM; in experiment [9], 3.41 µM; in experiment [10] it was 16 µM.

As for `CCCc1cc(=O)[nH]c(-n2nc(C)cc2C)n1`, the GI50 in experiment [1] is 7.62 µM; in experiment [2] it was 2.71 µM; in [3], 2.47 µM; in experiment [4] it was 3.4 µM; in experiment [5] it was 4.67 µM; in [6], 5.99 µM. In addition, the GI50 in experiment [7] was 2.41 µM; in experiment [8] it was 4.29 µM; in [9] it was 1.07 µM; in experiment [10], 4.75 µM. The TGI in experiment [1] was above 100 µM; in experiment [2], above 100 µM; in [3], 26.3 µM; in [4] it was above 100 µM; in experiment [5], 32.4 µM; in experiment [6], 55.6 µM. Moreover, the TGI in experiment [7] was above 100 µM; in experiment [8], above 100 µM; in experiment [9], 8.81 µM; in experiment [10] it was above 100 µM.

Regarding `O=[N+]([O-])c1ccc2c(c1)Cc1cc(N=Cc3ccc4c(c3)OCO4)ccc1-2`, the TGI in experiment [1], in experiment [2], in experiment [3], in experiment [4], in [5] and in experiment [6] was above 100 µM throughout. For the same compound, the TGI in experiment [7], in experiment [8], in experiment [9] and in [10] was above 100 µM in each case.

Regarding `CCOC(=O)c1cc2c(n1Cc1cccc(OC)c1)-c1oncc1CCC2`, the GI50 in [1] was 6.65 µM; in experiment [2], 0.915 µM; in experiment [3], 2.12 µM; in experiment [4] it was 0.456 µM; in experiment [5], 0.153 µM; in [6], 32.1 µM. Also, the GI50 in [7] is 3.21 µM; in experiment [8], 1.67 µM; in [9], 0.616 µM; in [10] it was 6.46 µM. Also, the TGI in experiment [1] was above 100 µM; in experiment [2], above 100 µM; in [3], above 100 µM; in experiment [4], above 100 µM; in experiment [5], 0.456 µM; in [6] it was above 100 µM. The TGI in experiment [7], in experiment [8], in experiment [9] and in experiment [10] was above 100 µM each time.

With `O=C(O)C1OC1(c1cccc(Cl)c1)c1ccccc1Cl` (configuration not stated), the TGI was above 100 µM in experiment [1]; above 100 µM in [2]; 81.8 µM in experiment [3]; 87.6 µM in [4]; above 100 µM in experiment [5]; 83.8 µM in [6]. Also, the TGI in experiment [7] is above 100 µM; in [8], 57.9 µM; in experiment [9], 76.5 µM; in experiment [10] it was 56.3 µM.

For `COc1cc2oc3cc(=O)cc4oc(-c5ccccc5)cc(c2c2c1CCC(c1ccccc1)O2)c43` (configuration not stated), the TGI in [1] is above 100 µM; in experiment [2] it was above 100 µM; in experiment [3] it was above 100 µM; in experiment [4], 83.9 µM; in [5], 56 µM; in experiment [6], above 100 µM. In addition, the TGI in experiment [7] was above 100 µM; in experiment [8], above 100 µM; in experiment [9] it was 54.9 µM; in experiment [10], above 100 µM.

In the case of `CCN(Cc1ccc(F)cc1)c1ccc(CO)c(F)c1`, the GI50 was 12.6 µM in [1]; 10.5 µM in [2]; 3.74 µM in [3]; 7.46 µM in [4]; 22.8 µM in [5]; 0.171 µM in [6]. The GI50 in experiment [7] is 16.2 µM; in experiment [8] it was 21.6 µM; in [9], 5.7 µM; in experiment [10], 19.5 µM. The TGI is 36.6 µM in experiment [1]; above 66.1 µM in experiment [2]; 36.4 µM in experiment [3]; above 73.5 µM in [4]; above 72.4 µM in experiment [5]; 0.364 µM in experiment [6]. The TGI in experiment [7] is above 84.5 µM; in experiment [8] it was 94.6 µM; in [9] it was 31.7 µM; in experiment [10] it was 99.1 µM.

For the compound `N#CCCN(CCCN(CCCN(C(=O)Nc1ccccc1)c1ccccc1)C(=O)Nc1ccccc1)C(=O)Nc1ccccc1`, the GI50 in experiment [1] is above 100 µM; in experiment [2] it was above 100 µM; in [3], above 100 µM; in experiment [5], 34.9 µM; in experiment [7], 85.2 µM; in [8], above 100 µM. The GI50 in [9] and in [10] was above 100 µM throughout. The TGI in experiment [1] was above 100 µM; in experiment [2], above 100 µM; in experiment [3], above 100 µM; in experiment [4] it was above 8.75 µM; in experiment [5], above 100 µM; in [6], above 100 µM. In addition, the TGI in experiment [7], in experiment [8], in [9] and in experiment [10] was above 100 µM in each case.

Consider `COC1=CC(c2ccc[nH]2)=N/C1=C\c1[nH]c(C)c(C(=O)CCCCC(=O)NC(C)(C)C)c1C`, for which the GI50 was 1.7 µM in experiment [1]; 3.34 µM in experiment [2]; 1.39 µM in [3]; 1.94 µM in experiment [4]; 1.75 µM in experiment [5]; 2.97 µM in [6]. The GI50 in [7] is 2.25 µM; in experiment [8], 1.21 µM; in [9], 2.17 µM; in [10] it was 2.19 µM. In addition, the TGI in experiment [1] was found to be 3.36 µM; in experiment [2], 21.7 µM; in experiment [3] it was 4.43 µM; in experiment [5], 3.47 µM; in experiment [6], 15 µM; in experiment [7], 5.45 µM. Moreover, the TGI was found to be 2.57 µM in [8], 6.66 µM in experiment [9] and 7.32 µM in experiment [10].

With `Nc1nc(N)c2nc(CNc3ccc(C(=O)NC(CC(=O)O)C(=O)O)cc3)cnc2n1` (configuration not stated), the GI50 in [1] was 0.372 µM; in experiment [2] it was 0.569 µM; in experiment [3], 0.481 µM; in experiment [4], 0.0741 µM; in [5], 0.465 µM; in experiment [6], 30.6 µM. Moreover, the GI50 was 0.589 µM in experiment [7], 0.319 µM in experiment [8], 0.508 µM in experiment [9] and 0.922 µM in [10]. The TGI is above 100 µM in [1]; above 100 µM in [2]; 12.4 µM in experiment [3]; above 100 µM in experiment [4]; above 100 µM in [5]; above 100 µM in [6]. Also, the TGI was above 100 µM in experiment [7], above 75.7 µM in [8], above 34.6 µM in experiment [9] and above 100 µM in experiment [10].
